Values joined by “and” are separate entries in the source; they are usually repeats but may differ in a detail not shown here. Equal entries are not always repeated.
Key:
[1] = system: MV/FrankfurtMain.DEU/17.11 (genotype D8); assay: Throat swab virus titers (shed virus, limited dilution); assay type: in vivo, squirrel monkeys (Saimiri sciureus)
Protocol: (§1) White blood cell counts, viral load quantification in PBMCs, and quantification of neutralizing antibody titers were performed as follows: for white blood cell counts, blood was diluted 1:100 in 3% acetic acid and cells were counted using a Neubauer chamber. For viral load quantification in PBMCs, blood was centrifuged at 3000 rpm for 15 min and serum was frozen at −20 °C until further use. Red blood cell lysis was performed and the remaining PBMCs were counted using a Neubauer chamber. Viral titers in PBMCs were quantified in quadruplicates using limited dilution method and calculated as TCID50/10^6 PBMCs. Neutralizing antibody titers were quantified by incubating MeV with 2-fold serial dilutions of the respective serum for 20 min at room temperature in quadruplicates. Vero/hSLAM cells were added and incubated for 3 days at 37 °C. Neutralizing antibody titers are expressed as the reciprocal of the highest serum dilution showing no signs of infection. For virus titration from throat swabs, swabs were placed in 150 μl DMEM with 3% penicillin/streptomycin and the titer was quantified by limited dilution method.

[2] = Necropsy and histology (H&E) for pharmacotoxicity; assay type: in vivo
Description: After euthanasia, each animal was examined for gross pathological changes, and samples were collected for histopathological examination. After fixation, all tissue samples were embedded in paraffin. Histology slices were mounted and stained using standard H&E staining techniques.

MeV N gene RNA = assay: Quantitative RT-PCR of MeV N-gene RNA in lymph nodes; assay type: in vivo; conditions: for MeV N-gene RNA levels in lymph nodes versus untreated: 21 days post-infection
Protocol: Organs (21 days post-infection) and PBMCs (twice a week) were frozen in RNAlater (Qiagen) at −80 °C until further processing. For the deceased animal, organs were frozen in RNAlater at the day of death. Lymph nodes were thawed on ice, transferred to TRIzol (ambion life technologies) and homogenized using a tissue homogenizer. Total RNA of lymph nodes and PBMCs was extracted following the TRIzol manufacturer’s protocol. RNA (1000 ng for lymph nodes; 110 ng for PBMCs) was then subjected to reverse transcription using random hexamer primers and Superscript III reverse transcriptase in accordance with the manufacturer’s protocols. Subsequent quantitative PCR (qPCR) was carried out using primer pairs specific for a fragment in the MeV N gene[23] or GAPDH gene(Supplementary Table 2) and the PowerUp SYBR Green Master Mix (Thermo Fisher Scientific) in an Applied Biosystems 7500 Real-Time PCR system. Samples were normalized for GAPDH. The comparative (ΔΔCt) Ct method was applied to determine relative amounts of N-encoding RNA present in samples from treated animals compared to those obtained from untreated control animals (lymph nodes) or compared to those obtained from untreated control animals on day 7 post-infection (peak PBMC virus titer).

[3] = system: MV/FrankfurtMain.DEU/17.11 (genotype D8); assay: PBMC-associated viremia titers (limited dilution, TCID50/10^6 PBMCs); assay type: in vivo, squirrel monkeys (Saimiri sciureus); conditions: day 3 therapeutic administration
Protocol: as §1

Compound: Cn1nc(C(F)(F)F)cc1C(=O)Nc1ccc(S(=O)(=O)N2CCCC[C@H]2CCN2CCOCC2)cc1 [ERDRP-0519]
- drop of shed virus titers (throat swab) compared to untreated animals ([1]; day 7 therapeutic group, within 72 h of treatment initiation): dropped significantly (p = 0.0199) by two orders of magnitude
- Swab Titration, group mean (Mean 2) ([1]; prophylactic, Row 1 (0 d)): 0 log10(TCID50/ml)
- Swab Titration, group mean (Mean 2) ([1]; prophylactic, Row 2 (3 d)): 0 log10(TCID50/ml)
- Swab Titration, group mean (Mean 2) ([1]; prophylactic, Row 3 (7 d)): 0 log10(TCID50/ml)
- Swab Titration, group mean (Mean 2) ([1]; prophylactic, Row 4 (10 d)): 0.4498 log10(TCID50/ml)
- Swab Titration, group mean (Mean 2) ([1]; prophylactic, Row 5 (14 d)): 0 log10(TCID50/ml)
- Swab Titration, group mean (Mean 2) ([1]; prophylactic, Row 6 (17 d)): 0.1165 log10(TCID50/ml)
- Viral titers (throat swab), individual animals ([1]; prophylactic, time 10 d): 2.699 log10(TCID50/ml)
- Viral titers (throat swab), individual animals ([1]; prophylactic, time 17 d): 0.699 log10(TCID50/ml)
- Swab Titration, group mean (Mean 2) ([1]; therapeutic (d3), Row 1 (0 d)): 0 log10(TCID50/ml)
- Swab Titration, group mean (Mean 2) ([1]; therapeutic (d3), Row 2 (3 d)): 0 log10(TCID50/ml)
- Swab Titration, group mean (Mean 2) ([1]; therapeutic (d3), Row 3 (7 d)): 0.7332 log10(TCID50/ml)
- Swab Titration, group mean (Mean 2) ([1]; therapeutic (d3), Row 4 (10 d)): 1.153 log10(TCID50/ml)
- Swab Titration, group mean (Mean 2) ([1]; therapeutic (d3), Row 5 (14 d)): 0 log10(TCID50/ml)
- Swab Titration, group mean (Mean 2) ([1]; therapeutic (d3), Row 6 (17 d)): 0 log10(TCID50/ml)
- Viral titers (throat swab), individual animals ([1]; therapeutic (d3), time 7 d): 0.699 log10(TCID50/ml) and 2 log10(TCID50/ml) and 1.699 log10(TCID50/ml)
- Viral titers (throat swab), individual animals ([1]; therapeutic (d3), time 10 d): 1.477 log10(TCID50/ml) (3×) and 2.477 log10(TCID50/ml)
- Swab Titration, group mean (Mean 2) ([1]; therapeutic (d7), Row 1 (0 d)): 0 log10(TCID50/ml)
- Swab Titration, group mean (Mean 2) ([1]; therapeutic (d7), Row 2 (3 d)): 0 log10(TCID50/ml)
- Swab Titration, group mean (Mean 2) ([1]; therapeutic (d7), Row 3 (7 d)): 2.207 log10(TCID50/ml)
- Swab Titration, group mean (Mean 2) ([1]; therapeutic (d7), Row 4 (10 d)): 0.9798 log10(TCID50/ml)
- Swab Titration, group mean (Mean 2) ([1]; therapeutic (d7), Row 5 (14 d)): 0 log10(TCID50/ml)
- Swab Titration, group mean (Mean 2) ([1]; therapeutic (d7), Row 6 (17 d)): 0 log10(TCID50/ml)
- Viral titers (throat swab), individual animals ([1]; therapeutic (d7), time 7 d): 3.477 log10(TCID50/ml) and 2.699 log10(TCID50/ml) (2×) and 2.176 log10(TCID50/ml) (2×)
- Viral titers (throat swab), individual animals ([1]; therapeutic (d7), time 10 d): 1.699 log10(TCID50/ml) and 1.477 log10(TCID50/ml) and 2.699 log10(TCID50/ml)
- Swab Titration, Mean Diff, untreated vs. treated ([1]; untreated vs. prophylactic, Row 1 (0 d)): 0 log10(TCID50/ml)
- Swab Titration, Mean Diff, untreated vs. treated ([1]; untreated vs. prophylactic, Row 2 (3 d)): 0 log10(TCID50/ml)
- Swab Titration, Mean Diff, untreated vs. treated ([1]; untreated vs. prophylactic, Row 3 (7 d)): 1.98 log10(TCID50/ml)
- Swab Titration, Mean Diff, untreated vs. treated ([1]; untreated vs. prophylactic, Row 4 (10 d)): 2.423 log10(TCID50/ml)
- Swab Titration, Mean Diff, untreated vs. treated ([1]; untreated vs. prophylactic, Row 5 (14 d)): 0 log10(TCID50/ml)
- Swab Titration, Mean Diff, untreated vs. treated ([1]; untreated vs. prophylactic, Row 6 (17 d)): 0.1302 log10(TCID50/ml)
- Swab Titration, Mean Diff, untreated vs. treated ([1]; untreated vs. therapeutic (d3), Row 1 (0 d)): 0 log10(TCID50/ml)
- Swab Titration, Mean Diff, untreated vs. treated ([1]; untreated vs. therapeutic (d3), Row 2 (3 d)): 0 log10(TCID50/ml)
- Swab Titration, Mean Diff, untreated vs. treated ([1]; untreated vs. therapeutic (d3), Row 3 (7 d)): 1.247 log10(TCID50/ml)
- Swab Titration, Mean Diff, untreated vs. treated ([1]; untreated vs. therapeutic (d3), Row 4 (10 d)): 1.72 log10(TCID50/ml)
- Swab Titration, Mean Diff, untreated vs. treated ([1]; untreated vs. therapeutic (d3), Row 5 (14 d)): 0 log10(TCID50/ml)
- Swab Titration, Mean Diff, untreated vs. treated ([1]; untreated vs. therapeutic (d3), Row 6 (17 d)): 0.2467 log10(TCID50/ml)
- Swab Titration, Mean Diff, untreated vs. treated ([1]; untreated vs. therapeutic (d7), Row 1 (0 d)): 0 log10(TCID50/ml)
- Swab Titration, Mean Diff, untreated vs. treated ([1]; untreated vs. therapeutic (d7), Row 2 (3 d)): 0 log10(TCID50/ml)
- Swab Titration, Mean Diff, untreated vs. treated ([1]; untreated vs. therapeutic (d7), Row 3 (7 d)): -0.2268 log10(TCID50/ml)
- Swab Titration, Mean Diff, untreated vs. treated ([1]; untreated vs. therapeutic (d7), Row 4 (10 d)): 1.893 log10(TCID50/ml)
- Swab Titration, Mean Diff, untreated vs. treated ([1]; untreated vs. therapeutic (d7), Row 5 (14 d)): 0 log10(TCID50/ml)
- Swab Titration, Mean Diff, untreated vs. treated ([1]; untreated vs. therapeutic (d7), Row 6 (17 d)): 0.2467 log10(TCID50/ml)
- histological signs of pharmacotoxicity ([2]; all monkeys, day 21, 50 mg/kg b.i.d. 14 days): No histological signs of pharmacotoxicity were detected
- liver histology of the deceased animal versus untreated control ([2]; day 3 therapeutic group animal deceased day 15): no pathological alternations
- Lymph node fold difference, group mean (Mean 2) (MeV N gene RNA; prophylactic): 0.06859
- fold difference (Lymph node MeV N RNA), individual animals (MeV N gene RNA; prophylactic): 0.002631 and 0.0102 and 0.1018 and 0.01292 and 0.2776 and 0.00638
- MeV N-gene RNA levels in lymph nodes versus untreated (MeV N gene RNA; prophylactic group, p = 0.0295): significantly decreased
- Lymph node fold difference, group mean (Mean 2) (MeV N gene RNA; therapeutic (d3)): 0.1137
- fold difference (Lymph node MeV N RNA), individual animals (MeV N gene RNA; therapeutic (d3)): 0.5644 and 0.005805 and 0.02288 and 0.01111 and 0.0007117 and 0.07727
- Lymph node fold difference, group mean (Mean 2) (MeV N gene RNA; therapeutic (d7)): 0.7008
- fold difference (Lymph node MeV N RNA), individual animals (MeV N gene RNA; therapeutic (d7)): 1.441 and 0.8274 and 0.2474 and 0.8349 and 0.2786 and 0.5749
- MeV N-gene RNA levels in lymph nodes versus untreated (MeV N gene RNA; therapeutic day 3 group, p = 0.0346): significantly decreased
- Lymph node fold difference, Mean Diff, (MeV N gene RNA; untreated vs. prophylactic): 1.828
- Lymph node fold difference, Mean Diff, (MeV N gene RNA; untreated vs. therapeutic (d3)): 1.783
- Lymph node fold difference, Mean Diff, (MeV N gene RNA; untreated vs. therapeutic (d7)): 1.196
- effect on PBMC-associated virus replication [3]: effectively suppressed virus replication

Reference: PMC8413292, “Small-molecule polymerase inhibitor protects non-human primates from measles and reduces shedding” (Nature Communications, 2021)
